This passage reports Ratio Ki and Ki results from ChEMBL document CHEMBL1144238, “Identification and SAR around N-{2-[4-(2,3-dihydro-benzo[1,4]dioxin-2-ylmethyl)-[1,4]diazepan-1-yl]-ethyl}-2-phenoxy-nicotinamide, a selective alpha2C adrenergic receptor antagonist” (Bioorg Med Chem Lett, 2008).

The structures appear in SMILES notation.

Assay [1] is filed under the species Homo sapiens. Put plainly: Selectivity human recombinant adrenergic Alpha-2C receptor over human recombinant adrenergic alpha2B receptor by FLIPR.
Assay [2] has as its target T1, Alpha-2A adrenergic receptor (Homo sapiens, UniProt P08913).
T1 sequence (P08913 whole entry): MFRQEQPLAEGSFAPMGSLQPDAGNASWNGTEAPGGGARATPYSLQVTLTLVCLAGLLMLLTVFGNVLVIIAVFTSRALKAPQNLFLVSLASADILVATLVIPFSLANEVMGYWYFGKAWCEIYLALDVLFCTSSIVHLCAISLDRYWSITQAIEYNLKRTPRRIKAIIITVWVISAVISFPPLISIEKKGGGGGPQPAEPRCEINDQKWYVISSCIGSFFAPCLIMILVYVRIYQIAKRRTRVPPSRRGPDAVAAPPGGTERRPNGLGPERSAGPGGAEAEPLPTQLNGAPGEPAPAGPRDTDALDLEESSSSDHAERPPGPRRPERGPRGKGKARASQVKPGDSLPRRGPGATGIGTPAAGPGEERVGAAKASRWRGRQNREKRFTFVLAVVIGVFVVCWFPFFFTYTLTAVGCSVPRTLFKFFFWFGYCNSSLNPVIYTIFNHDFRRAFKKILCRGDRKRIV
Description: Antagonist activity at human recombinant adrenergic alpha2A receptor expressed in CHO cells assessed as inhibition of NE-induced calcium mobilization by FLIPR. It counts as functional, cell-based.

Assay [3] concerns the target T1, Alpha-2A adrenergic receptor. Description: Binding affinity at human recombinant adrenergic alpha2A receptor expressed in CHO cells by radioligand binding assay. It counts as cell-based.
The target of assay [4] is T2, Alpha-2C adrenergic receptor (Homo sapiens, UniProt P18825).
T2 sequence (P18825 whole entry): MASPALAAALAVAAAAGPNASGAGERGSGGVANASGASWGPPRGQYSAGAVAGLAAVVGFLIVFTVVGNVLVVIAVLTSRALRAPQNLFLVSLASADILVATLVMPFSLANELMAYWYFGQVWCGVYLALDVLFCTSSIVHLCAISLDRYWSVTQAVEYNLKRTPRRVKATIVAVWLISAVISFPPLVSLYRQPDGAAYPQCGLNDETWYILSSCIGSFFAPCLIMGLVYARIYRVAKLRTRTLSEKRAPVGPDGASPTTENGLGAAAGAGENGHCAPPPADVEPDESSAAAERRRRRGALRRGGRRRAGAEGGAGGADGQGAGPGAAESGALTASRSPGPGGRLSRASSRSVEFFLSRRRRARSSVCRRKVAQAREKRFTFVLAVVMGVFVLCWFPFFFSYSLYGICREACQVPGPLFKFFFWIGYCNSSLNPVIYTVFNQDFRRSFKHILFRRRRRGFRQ
Put plainly: Binding affinity at human recombinant adrenergic Alpha-2C receptor expressed in CHO cells by radioligand binding assay. It counts as cell-based.

Assay [5] concerns the target T3, Alpha-2B adrenergic receptor (Homo sapiens, UniProt P18089).
T3 sequence (P18089 whole entry): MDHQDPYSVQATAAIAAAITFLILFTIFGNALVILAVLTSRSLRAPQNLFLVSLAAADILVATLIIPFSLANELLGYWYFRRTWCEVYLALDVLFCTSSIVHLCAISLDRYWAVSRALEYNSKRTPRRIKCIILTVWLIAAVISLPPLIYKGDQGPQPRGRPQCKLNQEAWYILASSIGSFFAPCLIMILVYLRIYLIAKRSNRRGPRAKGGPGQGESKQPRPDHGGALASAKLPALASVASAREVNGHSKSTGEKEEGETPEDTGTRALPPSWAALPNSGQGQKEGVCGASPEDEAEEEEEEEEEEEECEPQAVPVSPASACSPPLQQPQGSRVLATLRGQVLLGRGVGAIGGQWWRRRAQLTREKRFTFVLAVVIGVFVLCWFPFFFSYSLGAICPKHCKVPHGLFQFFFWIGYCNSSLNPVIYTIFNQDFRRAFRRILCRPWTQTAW
Description: Antagonist activity at human recombinant adrenergic alpha2B receptor expressed in CHO cells assessed as inhibition of NE-induced calcium mobilization by FLIPR. It counts as functional, cell-based.

For assay [6], the species on record is Homo sapiens. Put plainly: Selectivity for human recombinant adrenergic Alpha-2C receptor over human recombinant adrenergic alpha2A receptor by radioligand binding assay.
The target of assay [7] is T3, Alpha-2B adrenergic receptor. Put plainly: Binding affinity at human recombinant adrenergic alpha2B receptor expressed in CHO cells by radioligand binding assay. It counts as cell-based.
For assay [8], the species on record is Homo sapiens. Put plainly: Selectivity for human recombinant adrenergic Alpha-2C receptor over human recombinant adrenergic alpha2B receptor by radioligand binding assay.
For assay [9], the species on record is Homo sapiens. Description: Selectivity human recombinant adrenergic Alpha-2C receptor over human recombinant adrenergic alpha2A receptor by FLIPR.
The target in assay [10] is T2, Alpha-2C adrenergic receptor. Put plainly: Antagonist activity at human recombinant adrenergic Alpha-2C receptor expressed in CHO cells assessed as inhibition of NE-induced calcium mobilization by FLIPR. It counts as functional, cell-based.

Regarding `CCCCOc1ncccc1C(=O)NCCN1CCCN(CC2COc3ccccc3O2)CC1` (stereo unspecified), the Ratio Ki turned out to be 3 in the assay listed under Homo sapiens [1], 103 in the assay filed under Homo sapiens [6], 13 in the assay listed under Homo sapiens [8] and 15 in the assay filed under Homo sapiens [9]. Also, the Ki is 73.6 nM in assay [2]; 81 nM in assay [3]; 0.8 nM in [4]; 13.3 nM in assay [5]; 10.5 nM in [7]; 4.8 nM in assay [10].
As for `N#Cc1cccc(Oc2ncccc2C(=O)NCCN2CCCN(CC3COc4ccccc4O3)CC2)c1` (stereo unspecified), the Ratio Ki in the assay listed under Homo sapiens [1] is 14; in the assay filed under Homo sapiens [6] it was 275; in the assay filed under Homo sapiens [8], 48; in the assay filed under Homo sapiens [9] it was 262. The Ki stood at 501 nM in assay [2]; 208 nM in assay [3]; 0.8 nM in assay [4]; 27.5 nM in assay [5]; 36 nM in assay [7]; 1.9 nM in assay [10].
As to `O=C(NCCN1CCCN(CC2COc3ccccc3O2)CC1)c1cccnc1` (stereo unspecified), the Ki in [3] was found to be 443 nM; in [4] it was 15.7 nM; in assay [7], 17.9 nM. Besides, the Ratio Ki in the assay listed under Homo sapiens [6] was found to be 28; in the assay filed under Homo sapiens [8], 1.
For `c1ccc(Oc2ncccc2COCCN2CCCN(CC3COc4ccccc4O3)CC2)cc1` (stereo unspecified), the Ratio Ki in the assay filed under Homo sapiens [1] came out at 19; in the assay filed under Homo sapiens [6] it was 26; in the assay filed under Homo sapiens [8], 28; in the assay filed under Homo sapiens [9], 41. Moreover, the Ki is 275 nM in assay [2]; 66.1 nM in assay [3]; 2.5 nM in [4]; 132 nM in assay [5]; 69.5 nM in [7]; 6.8 nM in assay [10].
In the case of `O=C(NCCN1CCCN(C[C@@H]2COc3ccccc3O2)CC1)c1cccnc1Oc1ccccc1`, the Ki in assay [4] was 9.2 nM. In addition, the Ratio Ki amounted to 53 in the assay listed under Homo sapiens [6] and 12 in the assay filed under Homo sapiens [8].
On to `c1ccc(CN2CCN(CC3COc4ccccc4C3)CC2)cc1` (stereo unspecified), for which the Ki in [3], in [4] and in assay [7] was more than 500 nM in each case.
As for `O=C(NCCN1CCCN(CC2COc3ccccc3O2)CC1)c1cccnc1Oc1ccccc1` (stereo unspecified), the Ratio Ki is 5 in the assay filed under Homo sapiens [1], 44 in the assay listed under Homo sapiens [6], 10 in the assay filed under Homo sapiens [8] and 19 in the assay filed under Homo sapiens [9]. Besides, the Ki was determined as 474 nM in [2]; 220 nM in assay [3]; 5 nM in assay [4]; 132 nM in assay [5]; 49 nM in assay [7]; 25 nM in assay [10].
Regarding `O=C(NCCN1CCN(CC2COc3ccccc3O2)CC1)c1cccnc1Oc1ccccc1` (stereo unspecified), the Ki in assay [3] came to 27 nM; in assay [4] it was 3 nM; in assay [7], 8 nM. Moreover, the Ratio Ki in the assay filed under Homo sapiens [6] was determined as 9; in the assay listed under Homo sapiens [8] it was 3.
As to `CC(C)(C)Nc1ncccc1C(=O)NCCN1CCCN(CC2COc3ccccc3O2)CC1` (stereo unspecified), the Ratio Ki was determined as 3 in the assay listed under Homo sapiens [1], 286 in the assay filed under Homo sapiens [6], 58 in the assay listed under Homo sapiens [8] and 12 in the assay filed under Homo sapiens [9]. Moreover, the inhibition constant (Ki) in assay [2] is 366 nM; in assay [3], 138 nM; in assay [4], 0.5 nM; in assay [5], 103 nM; in assay [7], 28 nM; in [10], 30.5 nM.
As for `COc1ccccc1N1CCN(CC2COc3ccccc3O2)CC1` (stereo unspecified), the Ratio Ki came to 1 in the assay filed under Homo sapiens [1], 15 in the assay filed under Homo sapiens [6], 6 in the assay listed under Homo sapiens [8] and 7 in the assay listed under Homo sapiens [9]. Besides, the Ki in [2] worked out at 167 nM; in assay [3], 506 nM; in assay [4] it was 33 nM; in assay [5] it was 17 nM; in assay [7] it was 194 nM; in assay [10], 23 nM.
In the case of `c1ccc(CN2CCN(CC3CCc4ccccc4O3)CC2)cc1` (stereo unspecified), the Ratio Ki turned out to be 9 in the assay listed under Homo sapiens [1], 7 in the assay filed under Homo sapiens [6], 4 in the assay listed under Homo sapiens [8] and 8 in the assay filed under Homo sapiens [9]. Further, the Ki is 167 nM in [2]; 146 nM in assay [3]; 19.6 nM in [4]; 180 nM in assay [5]; 72.8 nM in assay [7]; 21.1 nM in assay [10].
`c1ccc(Oc2ncccc2-c2noc(CN3CCCN(CC4COc5ccccc5O4)CC3)n2)cc1` (stereo unspecified): the Ratio Ki in the assay listed under Homo sapiens [1] was 3; in the assay listed under Homo sapiens [6] it was 23; in the assay listed under Homo sapiens [8], 8; in the assay listed under Homo sapiens [9] it was 9. For the same compound, the Ki came to 15.4 nM in assay [2]; 44.8 nM in assay [3]; 1.9 nM in [4]; 5.2 nM in assay [5]; 15.3 nM in assay [7]; 1.7 nM in assay [10].
As for `CCCCOc1cccc(C(=O)NCCN2CCCN(CC3COc4ccccc4O3)CC2)n1` (stereo unspecified), the Ratio Ki in the assay filed under Homo sapiens [1] stood at 4; in the assay filed under Homo sapiens [6], 195; in the assay listed under Homo sapiens [8], 18; in the assay listed under Homo sapiens [9], 13. The Ki in assay [2] worked out at 48.4 nM; in assay [3], 118 nM; in assay [4], 0.6 nM; in assay [5], 14.1 nM; in assay [7], 10.9 nM; in [10], 3.8 nM.
